Patent US10888567B2, “Inhibitors of tryptophan dioxygenases (IDO1 and TDO) and their use in therapy” (AUCKLAND UNISERVICES LIMITED, priority 2014, dated 2021)

What was measured:
[1] = molecular target: Recombinant human IDO1 (rhIDO1) (Homo sapiens (Human), UniProt P14902); experiment: Enzymatic assay for IDO1 activity; format: biochemical; settings: rhIDO1 9 nM, 80 μM TRP, 37° C. 30 min
Method: Recombinant human IDO1 (rhIDO1) was expressed and purified from cultures of EC538 strain of E. coli transformed with pREP4 and pQE9-IDO plasmid. Reaction mixes were set up in 384-well microplates containing 50 mM phosphate buffer, 10 mM ascorbic, 10 μM methylene blue, 100 μg/mL catalase, 80 μM TRP, 0.01% Tween 20 (v/v) mixed with rhIDO1 (15 μL) at a final concentration of 9 nM in a total volume of 30 μL assay medium. The plates were incubated at 37° C. for 30 min, and the enzymatic reaction was terminated by adding piperidine (200 mM) and heated at 65° C. for 20 min. Fluorescence intensity was read at λex 400 nm and λem 500 nm. Test compounds were dissolved in 100% DMSO and pre-diluted in assay medium prior to adding rhIDO1. IDO1 inhibition (%) was calculated as
[formula] All experiments were carried out in triplicates, and statistical Analyses were conducted in Prism v5 (Graphpad Software, Inc., La Jolla, Calif., USA). Cell-Based Assay for IDO1 Inhibition

[2] = tested on: Lewis Lung carcinoma cells transfected to express IDO1 (LLTC-hIDO1); experiment: MTT cell viability in the cellular IDO1 assay; format: cell-based; settings: same experiment as cellular IDO1 assay
Method: The viability of the cells in each well in the same experiment was determined using the 3-(4,5-dimethylthiazolyl-2-yl)-2,5-diphenyltetrazolium bromide (MTT) colourimetric assay. After the removal of the supernatant for determination of IDO1 inhibition, the cells were incubated with MTT (500 μg/mL) until crystal formation was observed. […] DMSO (100 μL/well) was added to dissolve the crystals and then the absorbance in each well was measured at 570 nm. Cell viability in each well was expressed as a percentage of untreated controls. Triplicate cultures were used for all experiments unless stated otherwise.

[3] = molecular target: human IDO1 (LLTC-hIDO1 cells) (Homo sapiens, UniProt P14902); experiment: Cell-based assay for IDO1 inhibition (kynurenine in supernatant); settings: IDO1-transfected Lewis Lung carcinoma cells, 24 h; read-out: Cellular IC50
Method: Culture supernatant from each well was then transferred into a fresh, flat-bottomed 96-well plate, mixed with trichloroacetic acid (10% final concentration) and incubated for 20 min at 60° C. […] The absorbance of each well was read at 480 nm, and the concentration that inhibited 50% cellular enzyme activity was calculated.

Sequence of Recombinant human IDO1 (rhIDO1) (P14902 whole entry): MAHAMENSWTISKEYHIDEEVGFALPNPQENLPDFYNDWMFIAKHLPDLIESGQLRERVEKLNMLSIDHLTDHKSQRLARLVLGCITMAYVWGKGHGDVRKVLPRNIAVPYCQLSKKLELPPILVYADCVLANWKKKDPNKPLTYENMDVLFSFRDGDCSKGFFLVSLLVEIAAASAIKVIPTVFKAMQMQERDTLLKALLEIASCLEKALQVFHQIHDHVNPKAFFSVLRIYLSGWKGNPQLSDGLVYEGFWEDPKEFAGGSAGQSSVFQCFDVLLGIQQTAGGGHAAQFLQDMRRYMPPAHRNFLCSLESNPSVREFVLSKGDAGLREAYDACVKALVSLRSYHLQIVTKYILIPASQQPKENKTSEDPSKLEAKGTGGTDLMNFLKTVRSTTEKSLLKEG

SMILES | IC50 [1] [µM] | IC50 [2] [µM] | IC50 [3] [µM]
Nc1noc2nc(Cl)c(Cl)cc12 [Compound 67, 5,6-Dichloroisoxazolo[5,4-b]pyridin-3-amine] | < 1 | > 100 | 1 to 10
COCC#Cc1cnc2onc(N)c2c1 [Compound 69, 5-(3-Methoxyprop-1-yn-1-yl)isoxazolo[5,4-b]pyridin-3-amine] | > 100 | > 100 | 10 to 100
COc1ccc(-c2ccc3c(N)noc3n2)cc1 [Compound 70, 6-(4-Methoxyphenyl)isoxazolo[5,4-b]pyridin-3-amine] | > 100 | > 100 | > 100
Nc1noc2nc(-c3ccc(F)cc3)ccc12 [Compound 71, 6-(4-Fluorophenyl)isoxazolo[5,4-b]pyridin-3-amine] | > 100 | > 100 | 10 to 100
Nc1noc2nc(-c3ccc(Cl)cc3Cl)ccc12 [Compound 72, 6-(2,4-Dichlorophenyl)isoxazolo[5,4-b]pyridin-3-amine] | > 100 | > 100 | > 100
Nc1noc2nc(-c3ccc(F)cc3F)ccc12 [Compound 73, 6-(2,4-Difluorophenyl)isoxazolo[5,4-b]pyridin-3-amine] | > 100 | > 100 | 10 to 100
Nc1noc2nc(-c3cccs3)ccc12 [Compound 74, 6-(2-Thienyl)isoxazolo[5,4-b]pyridin-3-amine] | > 100 | > 100 | 1 to 10
Cn1nccc1-c1ccc2c(N)noc2n1 [Compound 75, 6-(1-Methyl-1H-pyrazol-5-yl)isoxazolo[5,4-b]pyridin-3-amine] | > 100 | > 100 | > 100
Nc1noc2nc(OCCN3CCOCC3)ccc12 [Compound 78, 6-(2-Morpholinoethoxy)isoxazolo[5,4-b]pyridin-3-amine] | > 100 | > 100 | > 100
CSc1ccc2c(N)noc2n1 [Compound 79, 6-(Methylthio)isoxazolo[5,4-b]pyridin-3-amine] | 10 to 100 | > 100 | 1 to 10
CS(=O)(=O)c1ccc2c(N)noc2n1 [Compound 80, 6-(methylsulfonyl)isoxazolo[5,4-b]pyridin-3-amine] | > 100 | > 100 | 10 to 100
COC(=O)c1ccc2c(N)noc2n1 [Compound 82, Methyl 3-aminoisoxazolo[5,4-b]pyridine-6-carboxylate] | > 100 | > 100 | 10 to 100

Further lines, results first:

IC50 [1] [µM] | IC50 [2] [µM] | IC50 [3] [µM] | SMILES
> 100 | > 100 | 10 to 100 | Cc1ncc2c(N)noc2n1 [Compound 64, 6-Methylisoxazolo[5,4-d]pyrimidin-3-amine]
> 100 | > 100 | > 100 | CSc1nc(-c2ccccc2)nc2onc(N)c12 [Compound 65, 4-(Methylthio)-6-phenylisoxazolo[5,4-d]pyrimidin-3-amine]
> 100 | > 100 | 10 to 100 | Nc1noc2nc(Cl)cc(C(F)(F)F)c12 [Compound 68, 6-Chloro-4-(trifluoromethyl)isoxazolo[5,4-b]pyridin-3-amine]
> 100 | > 100 | > 100 | CN(C)CCCOc1ccc2c(N)noc2n1 [Compound 76, 6-(3-(Dimethylamino)propoxy)isoxazolo[5,4-b]pyridin-3-amine]
> 100 | > 100 | > 100 | CN(C)CCOc1ccc2c(N)noc2n1 [Compound 77, 6-(2-(Dimethylamino)ethoxy)isoxazolo[5,4-b]pyridin-3-amine]
> 100 | > 100 | > 100 | Nc1noc2nc(C(=O)O)ccc12 [Compound 81, 3-Aminoisoxazolo[5,4-b]pyridine-6-carboxylic acid]
10 to 100 | > 100 | 10 to 100 | Nc1noc2nc(Oc3ccccc3Cl)ccc12 [Compound 84, 6-(2-Chlorophenoxy)isoxazolo[5,4-b]pyridin-3-amine]
